Test results from patent US20260152691A1, “METHOD AND COMPOUNDS FOR TREATING OR PREVENTING AUTOIMMUNE DISORDERS OR IMMUNE RESPONSES MODULATED BY THE EXPRESSION OF IDO1” (The Trustees of Princeton University, priority 2019, published 2026).

Legend:
[1] = target: IDO1 (Homo sapiens, UniProt P14902); assay: IDO1 activity assay, N-formylkynurenine absorbance at 321 nm; type: biochemical
Description: FIG. 2 is a graph showing the activity of IDO1 (500 nM) (204) with L-tryptophan (200 μM) as substrate glutathione alone (203), and also when activated by 3 MI (500 nM) with glutathione (5 mM) (201), and by 3 MI (500 nM) without glutathione (202).
FIG. 6 reflects a system involving IDO1 (50 nM), 0.1 mM L-tryptophan, and 5 mM glutathione in 100 mM sodium phosphate, pH 7.0 with <1 μM 6-chloro-5-fluoro-1H-indole-3-thiol.
The activity of the compounds was determined as follows. UV-vis spectra were recorded using a Hewlett-Packer 8453 diode array spectrophotometer. Activity assays were done at room temperature using 100 mM sodium phosphate, pH 7.0, with 500 nM IDO1 (ε404nm=172 mM^−1 cm^−1) and 50 μM L-tryptophan. These were initiated by addition of IDO1, and activity was monitored at 321 nm where product N-formylkynurenine absorbs (ε321nm=3750 M^−1 cm^−1).
The substituted indole compound was prepared daily in a 100 mM stock solution in dimethyl sulfoxide (DMSO), and this was serially diluted to maintain a consistent final concentration of 1% (v/v) DMSO in each assay. To maintain activity, 5 mM reduced glutathione was added to some of these from a 0.5 M stock solution. The substituted indole compound was generally tested from 100 nM to 10 μM. The ability of each compound to serve as a reducing substrate for IDO1 was fit using a Michaelis-Menten equation. […] Above 5 μM 3 MI, there was a steep inhibitory effect.

[2] = target: ferric IDO1 (Homo sapiens, UniProt P14902); assay: Stopped-flow UV-vis spectrometry of binding to ferric IDO1
Description: FIG. 3 is a graph showing the second-order rate constant of 3 MI binding to ferric IDO1 determined by stopped-flow spectrometry.
FIG. 4 is a graph showing stopped-flow UV-vis spectrometry of 3 MI (30 μM) binding to IDO1 (1.4 μM) over 0.2 s.
3-Mercaptoindole (3 MI) was seen to bind to IDO1 with a fast on-rate of 1.7×10^6 M^−1 s^−1 under pseudo-first-order conditions (See FIG. 3), producing a UV-vis spectrum (see FIG. 4) that has a Soret at 424 nm, a lower peak at 321 nm, and broad q-bands at 537 nm and a shoulder at about 575 nm. […] Note that although 3 MI is referred to here, similar results can be seen with other substituted indole compounds disclosed herein.

[3] = target: ferric-superoxo IDO1 (Homo sapiens, UniProt P14902); assay: Double-mixing stopped-flow spectrometry, reaction with ferric-superoxo IDO1; type: biochemical; details: 3 MI kept reduced with 5 mM glutathione; estimated, double exponential fit
Description: The nature of substituted indole compound-inhibition at high concentrations (>5 μM) was examined further with ferric-superoxo IDO1, the active tryptophan-oxidizing species. Ferric-superoxo IDO1 was generated using double-mixing stopped-flow spectrometry by mixing IDO1 prereduced with 2 mM sodium dithionite into aerobic buffer for 0.5 s. This ferric superoxo species was then mixed in the second push with 3 MI that had been maintained in the reduced state using 5 mM glutathione. 3 MI readily reacted with ferric-superoxo IDO1 to form ferric IDO1 without any observable intermediates. This was shown by a fast shift from the ferric-superoxo complex (Amax 415 nm) to the ferric (Amax 404 nm) that was completed nearly within the mixing time of the instrument (<10 ms) even at the lowest concentration of 3 MI useful for pseudo-first-order reaction conditions (where 3 MI must be at a large excess over IDO1). Following this fast conversion to ferric IDO1, there was a slower shift to the ferric 3 MI-bound complex as indicated by the Soret shifting to 424 nm (as in FIG. 4). To account for both reactions, these traces were fit using a double exponential expression.

[4] = target: T1, myoglobin (Homo sapiens, UniProt P02144); assay: Heme protein selectivity by stopped-flow UV-vis spectrometry, myoglobin; type: biochemical; details: pseudo-first-order conditions
T1 sequence (P02144 1-154): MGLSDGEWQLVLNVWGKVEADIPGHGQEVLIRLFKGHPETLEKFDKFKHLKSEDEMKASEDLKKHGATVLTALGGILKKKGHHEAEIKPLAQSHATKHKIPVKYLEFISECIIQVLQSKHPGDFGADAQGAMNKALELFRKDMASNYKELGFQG
Description: (§1) Since hydrogen sulfide and polysulfides are known to react with other heme proteins, the selectivity of 3 MI for IDO1 was examined by mixing the substituted indole compounds (such as 3 MI) with several other heme proteins and observing their reactions using stopped-flow UV-vis spectrometry.
(§2) The substituted indole compounds had no effect on catalase even at 250 µM, whereas the substituted indole compounds did appear to reduce myoglobin and hemoglobin, producing their oxygen-bound forms. The substituted indole compound was also able to reduce ferric cytochrome c to its distinctive ferrous form. The second-order rate constants of these reactions were determined under pseudo-first-order conditions giving 6.6×10^3, 1.6×10^4, and 2.7×10^5 M^−1 s^−1 for myoglobin, hemoglobin, and cytochrome c, respectively. […] Unlike myoglobin and hemoglobin, the oxy-form of IDO1 was not observed due to the relatively slow reduction of IDO1 by 3 MI.

[5] = target: hemoglobin (Homo sapiens, UniProt P68871+P69905); assay: Heme protein selectivity by stopped-flow UV-vis spectrometry, hemoglobin; type: biochemical; details: pseudo-first-order conditions
Description: as §1, §2

[6] = target: ferric cytochrome c (Homo sapiens, UniProt P99999); assay: Heme protein selectivity by stopped-flow UV-vis spectrometry, cytochrome c; type: biochemical; details: pseudo-first-order conditions
Description: as §1, §2

IDO1, sequence (P14902 whole entry): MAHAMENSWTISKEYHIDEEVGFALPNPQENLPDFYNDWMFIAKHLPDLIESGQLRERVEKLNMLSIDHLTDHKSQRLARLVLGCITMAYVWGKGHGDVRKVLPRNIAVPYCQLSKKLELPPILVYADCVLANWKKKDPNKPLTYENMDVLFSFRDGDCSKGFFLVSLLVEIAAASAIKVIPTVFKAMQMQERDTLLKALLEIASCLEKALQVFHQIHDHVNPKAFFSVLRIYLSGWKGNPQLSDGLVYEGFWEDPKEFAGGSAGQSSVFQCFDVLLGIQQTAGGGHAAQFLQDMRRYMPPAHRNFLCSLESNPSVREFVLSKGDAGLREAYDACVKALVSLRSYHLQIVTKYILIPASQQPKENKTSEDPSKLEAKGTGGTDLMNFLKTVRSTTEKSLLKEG
ferric IDO1, sequence (P14902 whole entry): as above
hemoglobin, sequence (P69905 2-142 limits assumed): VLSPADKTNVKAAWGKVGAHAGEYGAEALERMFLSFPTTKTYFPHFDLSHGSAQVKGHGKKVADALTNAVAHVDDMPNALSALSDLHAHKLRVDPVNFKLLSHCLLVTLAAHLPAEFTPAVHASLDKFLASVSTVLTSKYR
hemoglobin, sequence (P68871 2-147 limits assumed): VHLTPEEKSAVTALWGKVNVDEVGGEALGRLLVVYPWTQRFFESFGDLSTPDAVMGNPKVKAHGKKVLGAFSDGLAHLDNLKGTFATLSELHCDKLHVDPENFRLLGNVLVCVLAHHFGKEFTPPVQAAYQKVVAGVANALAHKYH
ferric-superoxo IDO1, sequence (P14902 whole entry): as the sequence (P14902 whole entry) above
ferric cytochrome c, sequence (P99999 whole entry): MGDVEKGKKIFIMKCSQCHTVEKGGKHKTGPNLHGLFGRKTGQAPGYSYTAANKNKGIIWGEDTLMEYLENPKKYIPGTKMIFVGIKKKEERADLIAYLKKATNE

Question: Which “concentration above which there was a steep inhibitory effect” value [1] does the source give for `Sc1c[nH]c2ccccc12` [3 MI, 3-Mercaptoindole] here?
Answer: Above 5 μM

Question: What about the Km ([1]; 500 nM IDO1, 50 μM L-tryptophan, 100 mM sodium phosphate pH 7.0, room temperature, Michaelis-Menten fit, read-out: Km of activation) of the same compound?
Answer: 2.2 ± 0.7 µM

Question: And the “IDO1 activity with reduced glutathione added” value ([1]; 5 mM reduced glutathione (FIG. 2, 201))?
Answer: sustained 3 MI-induced IDO1 activity

Question: What about the “time after which the initial burst of IDO1 activity leveled off” value ([1]; 3 MI without glutathione (FIG. 2, 202)) of the same compound?
Answer: 500 s

Question: And the “Kd of binding to IDO1” value ([2]; complete conversion to bound IDO1 at micromolar concentrations of 3 MI)?
Answer: submicromolar

Question: And the “second-order rate constant of initial reaction with ferric-superoxo IDO1” value [3]?
Answer: > 10^7 M^−1 s^−1

Question: What about the “second-order rate constant of reduction of myoglobin” value [4] of the same compound?
Answer: 6600 M⁻¹ s⁻¹

Question: What about the “second-order rate constant of reduction of hemoglobin” value [5] of the same compound?
Answer: 16000 M⁻¹ s⁻¹

Question: And the “second-order rate constant of reduction of cytochrome c” value [6]?
Answer: 270000 M⁻¹ s⁻¹

Question: For `Sc1c[nH]c2ccccc12` [3-Mercaptoindole (3 MI)], which “on-rate (second-order rate constant) of binding to IDO1” value ([2]; pseudo-first-order conditions, stopped-flow) is on record?
Answer: 1.7e+06 M⁻¹ s⁻¹

Question: How did the “IDO1 activity, N-formylkynurenine absorbance at 321 nm over time (FIG. 6)” value ([1]; IDO1 50 nM, 0.1 mM L-tryptophan, 5 mM glutathione, 100 mM sodium phosphate pH 7.0, <1 μM compound, background subtracted) turn out when `Fc1cc2c(S)c[nH]c2cc1Cl` [6-chloro-5-fluoro-1H-indole-3-thiol] was run?
Answer: increase in absorbance
